Laboratory results as given in US20210393621A1, “COMBINATION SEROTONIN SPECIFIC REUPTAKE INHIBITOR AND SEROTONIN 1A RECEPTOR PARTIAL AGONIST FOR REDUCING L-DOPA-INDUCED DYSKINESIA” (The Research Foundation for The State University of new York, priority 2018, published 2021).
Entries after “also recorded” stand apart in the source; their conditions may differ. Read-outs that look alike come from different tables or passages of the source.

Experiments:
[1] = tested on: extracellular 5-HT, dopamine and norepinephrine; conditions: cited from earlier work; for extracellular dopamine and norepinephrine: rat brain, vilazodone 1 and 10 mg/kg; for maximal increase of extracellular 5-HT: rats, acute systemic injection, measured 3 h after injection
5HT2A = conditions: rat cerebral cortex; read-out: affinity Ki; cited from earlier work
[2] = in vivo; cited from earlier work
[3] = dry and wet AMD; patients taking versus not taking L-DOPA; cited from earlier work
[4] = tested on: striatal c-Fos, PPD, PPE, PPT and 5-HT1AR mRNA; experiment: Experiment 2: real-time RT-PCR of striatal gene expression
[5] = tested on: striatal and raphe tissue monoamines; experiment: Experiment 1: HPLC of tissue monoamines and metabolites in striatum and dorsal raphe nucleus; conditions: for 5-HIAA / 5-HT / 5-HT Turnover / DA / DA Turnover / DOPAC: Striatum, VZD(0) + LD(6) mg/kg, 60 min post-LD
Experimental: Three-weeks post-lesion, animals were divided into 2 equally disabled groups, measured by forepaw adjusting steps (FAS, see below). One group (n=8) began receiving 14 days of daily vehicle (0.9% NaCl+0.1% ascorbic acid) and the other (n=22) received L-DOPA methyl ester (6 mg/kg, s.c.; Sigma)+DL-serine 2-(2,3,4-trihydroxybenzyl) hydrazine hydrochloride (benserazide; 15 mg/kg, s.c.; Sigma), hereafter L-DOPA, dissolved in vehicle at a volume of 1 mg/kg. Treatment persisted for 14 days to produce stable AIMs expression (Putterman et al., 2007; Conti et al., 2014). Thereafter, L-DOPA-treated animals with Axial, Limb, and Orolingual (ALO) AIMs (see description below, FIG. 1A)<30 were excluded from the study and the remaining L-DOPA-treated animals were divided into 3 equally dyskinetic groups. […] Daily injections continued over 23 days, with behavior assayed on Days 15, 22, 29, and 36. On Day 37, animals were killed 60 min post-treatment Left and right dorsal striata and DRN were dissected and flash frozen for HPLC analyses.
High-performance liquid chromatography (HPLC): HPLC, a method for semi-automated catecholamine analysis with coulometric detection, was performed according to prior protocols (Bishop et al., 2009) to determine the tissue levels of monoamines, their metabolites, and monoamine turnover in the striatum and DRN. The limit of detection for DOPAC, DA, 5-hydroxyindoleacetic acid (5-HIAA) and 5-HT was 10^−10 M. Final oxidation current values were plotted on a standard curve from 10^−6 M to 10^−9 M and expressed as pg of monoamine or metabolite per mg of tissue unless otherwise specified.
On the final treatment day, animals were sacrificed 60 min post-LD treatment and left and right striata and dorsal raphe nucleus (DRN) were collected for high performance liquid chromatography (HPLC) analysis. Values (means±standard mean error) are expressed as picograms of monoamine or metabolite per milligram wet tissue weight. Turnover estimates were determined by dividing a subjects metabolite value by its corresponding monoamine. Differences were assessed by a 2×4 (lesion×treatment) ANOVA, followed by Fisher's LSD post-hocs when appropriate. *p<0.01 vs lesion vs intact; +p<0.05 vs all; ^p<0.05 vs VZD (0)+LD (0); #p<0.05 vs VZD (0)+LD (6)

[6] = tested on: 6-OHDA-lesioned hemi-parkinsonian rats; experiment: Experiment 2: forepaw adjusting steps (FAS); type: in vivo, Sprague-Dawley rats; conditions: L-DOPA-naive rats; VZD 0, 10 or 20 mg/kg + L-DOPA 6 mg/kg; Days 1, 8, 15, 22
Experimental: […].). All VZD injections were administered 5 min prior to LD. […] AIMs values expressed are the median sum of axial, limb, and orolingual (ALO) behaviors. […] Values are expressed as medians [±median absolute difference (M.A.D.)]. […] Forepaw adjusting steps (FAS): The FAS test is a measure of forelimb akinesia performed according to previous protocols (Bishop et al., 2012; Chang et al., 1999). Data are presented as mean percent intact stepping where the sum of the total steps with the lesioned forepaw was divided by the total steps with the unlesioned forepaw multiplied by 100. Lower percent intact scores indicate greater forelimb akinesia. Prior to baseline, rats received 2 acclimation periods. On-treatment FAS was performed 60 min post-L-DOPA.

[7] = tested on: 6-OHDA-lesioned hemi-parkinsonian rats; experiment: Experiment 1: forepaw adjusting steps (FAS); type: in vivo, Sprague-Dawley rats; conditions: L-DOPA-primed rats; VZD 0, 10 or 20 mg/kg + L-DOPA 6 mg/kg; 60 min post-L-DOPA
From the text: Conti et al., 2014). […] Forepaw adjusting steps (FAS): The FAS test is a measure of forelimb akinesia performed according to previous protocols (Bishop et al., 2012; Chang et al., 1999). Data are presented as mean percent intact stepping where the sum of the total steps with the lesioned forepaw was divided by the total steps with the unlesioned forepaw multiplied by 100. Lower percent intact scores indicate greater forelimb akinesia. Prior to baseline, rats received 2 acclimation periods. On-treatment FAS was performed 60 min post-L-DOPA.

5-HT1A receptor = biological target: T1, 5-HT1A receptor (Homo sapiens, UniProt P08908); parameters: expressed in transfected cells; host or cells: SF9 cells; conditions: 5-HT1A receptor expressed in SF9 cells; cited from earlier work
T1 sequence (P08908 1-422): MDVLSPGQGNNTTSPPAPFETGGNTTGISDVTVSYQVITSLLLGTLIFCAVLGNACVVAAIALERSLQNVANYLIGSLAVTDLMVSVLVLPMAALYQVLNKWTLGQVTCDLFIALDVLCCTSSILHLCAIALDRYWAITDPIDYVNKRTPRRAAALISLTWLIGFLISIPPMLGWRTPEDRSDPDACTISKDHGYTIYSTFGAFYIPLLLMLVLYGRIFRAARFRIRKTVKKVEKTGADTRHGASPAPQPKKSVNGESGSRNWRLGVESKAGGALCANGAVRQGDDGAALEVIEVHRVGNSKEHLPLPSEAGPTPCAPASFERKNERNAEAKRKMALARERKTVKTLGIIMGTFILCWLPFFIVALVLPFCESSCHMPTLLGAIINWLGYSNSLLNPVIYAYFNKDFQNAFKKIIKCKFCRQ

DRN 5-HT neurons = experiment: Example 3: in vivo single-unit recordings of DRN 5-HT neurons; parameters: species or system rats
[8] = tested on: unilateral 6-OHDA-lesioned rats; experiment: Example 2: L-DOPA-induced dyskinesias (LIDs) scoring; type: in vivo, Sprague-Dawley rats
Experimental: 6-OHDA-induced dopaminergic lesions: Adult male Sprague-Dawley rats were randomly assigned to groups receiving either a 6-OHDA or sham lesion. […] [[…] 2019]. […] Rats were treated for 5 consecutive days/week (Mon-Fri), for 2 weeks. […] All rats were evaluated three times per week for the presence of L-DOPA-induced dyskinesias (LIDs) (Wed-Fri) and once for the stepping test (Tue). […] Scores were given over 1 min epochs and classified as axial, limb, orolingual and locomotive. […] Arrows=inhibitory input; dashed arrows=compromised function. The severity of each LID was scored using a standard scale. Each dyskinetic behavior was given an intensity and frequency score, which were then multiplied. The average sum of the products of each LID was determined in each animal.

[9] = tested on: L-DOPA-primed 6-OHDA-lesioned rats; experiment: Experiment 3: AIMs with 5-HT1AR or 5-HT1BR antagonist before Vilazodone and L-DOPA; type: in vivo, Sprague-Dawley rats; conditions: then VZD 0 or 10 mg/kg, then L-DOPA 6 mg/kg, s.c.
Experimental: In each study, the LD-primed rats received (FIG. 4A) the 5-HT1AR antagonist WAY100635 [WAY; 0 or 0.5 mg/kg, s.c.] or (FIG. 4B) the 5-HT1BR antagonist NAS [NAS; 0 or 0.3 mg/kg, s.c.]) 5 min prior to VZD (0 or 10 mg/kg, s.c.) injected 5 min prior to LD (6 mg/kg, s.c.) in a within-subjects counterbalanced design. ALO AIMs were evaluated and are shown for every 10 min for 3 h after LD administration.
All 6-OHDA-lesioned rats (n=17) were tested on the FAS prior to treatment regimens to establish baseline motor performance. Three-weeks post-surgery, all rats were primed with L-DOPA (6 mg/kg, s.c.) for 14 days.
Beginning 10 min post-treatment, a trained and blinded observer assigned a severity score (0-4) to each of the ALO AIMs based on 1 min ratings every 10 min for 3 h: 0, not present; 1, present from 1-29 s; 2, present 30-59 s; 3, present all 60 s, but interruptible by a cylinder tap; 4, present 60 s and not interruptible by a cylinder tap.

[10] = tested on: unilateral 6-OHDA-lesioned rats; experiment: Example 2: stepping test; type: in vivo, Sprague-Dawley rats; conditions: vilazodone 10 mg/kg or escitalopram 12.5 mg/kg + L-DOPA 5 mg/kg; 60 minutes post L-DOPA
Experimental: 6-OHDA-induced dopaminergic lesions: Adult male Sprague-Dawley rats were randomly assigned to groups receiving either a 6-OHDA or sham lesion. All rats received desipramine (10 mg/kg i.p.) 30 min prior to surgery to prevent the lesioning of norepinephrine neurons by 6-OHDA. A single injection of 6-OHDA (8 μg of 6-OHDA free base in 4 μl of 0.1% ascorbic acid) was delivered into the right medial forebrain bundle (coordinates taken from bregma: −4.3 mm AP, 1.6 mm ML, −8.3 mm DV). The same experimental treatment was performed for the sham-operated rats using vehicle (4 μl of 0.1% ascorbic acid). A standard stepping test was used to evaluate the effectiveness of the 6-OHDA lesion.
Rats were treated for 5 consecutive days/week (Mon-Fri), for 2 weeks. On the second day of each week, stepping tests were performed prior to drug administration, and 60 minutes post L-DOPA treatment.

[11] = lesioned striata, VZD 0, 10 or 20 mg/kg + L-DOPA 6 mg/kg daily, day 23, 60 min post-injection

Compound: c1ccc2c(c1)OC[C@H](CNCCCOc1ccc3c(c1)OCO3)O2 [MKC-242]
- extracellular dopamine and norepinephrine [1]: caused an increase

Compound: O=S1(=O)N(CCN2CC=C(c3c[nH]c4cc(F)ccc34)CC2)c2cccc3c2N1CCC3 [LY367265]
- Ki (5HT2A): 490 nM

Compound: CNCCC(Oc1ccc(C(F)(F)F)cc1)c1ccccc1 (centres unmarked) [fluoxetine]
- maximal increase of extracellular 5-HT ([1]; frontal cortex): 165%
- maximal increase of extracellular 5-HT ([1]; ventral hippocampus): 274%

Compound: N[C@@H](Cc1ccc(O)c(O)c1)C(=O)O [L-DOPA, L-3,4-dihydroxyphenylalanine]
- fraction that crosses the blood-brain barrier [2]: 5-10%
- delay of onset of AMD [3]: around 8 years
- striatal PPT mRNA ([4]; FIG. 6B): did not increase striatal PPT
- striatal PPE mRNA ([4]; lesioned striata, L-DOPA 6 mg/kg, Vilazodone 20 mg/kg): significantly increased PPE
- striatal PPD mRNA [4, 11]: significantly increased PPD
- striatal c-Fos mRNA [4, 11]: potentiated c-Fos
- DRN levels of DA, DOPAC and DA Turnover ([5]; L-DOPA 6 mg/kg): significantly increased DRN levels of DA, DOPAC and DA Turnover
- 5-HIAA ([5]; Intact): 650 ± 68.9 picograms per milligram wet ti
- 5-HT ([5]; Intact): 241 ± 29.6^ picograms per milligram wet ti
- 5-HT Turnover ([5]; Intact): 2.77 ± 0.15+
- DA ([5]; Intact): 4561 ± 210 picograms per milligram wet ti
- DA Turnover ([5]; Intact): 0.89 ± 0.04
- DOPAC ([5]; Intact): 4051 ± 224 picograms per milligram wet ti
- 5-HIAA ([5]; Lesion): 907 ± 82.5 picograms per milligram wet ti
- 5-HT ([5]; Lesion): 264 ± 39.6 picograms per milligram wet ti
- 5-HT Turnover ([5]; Lesion): 3.93 ± 0.63
- DA ([5]; Lesion): 83.3 ± 7.99 picograms per milligram wet ti
- DA Turnover ([5]; Lesion): 1.42 ± 0.23
- DOPAC ([5]; Lesion): 127 ± 30.7 picograms per milligram wet ti
- FAS stepping relative to baseline [6]: significant increases in motor ability on each test day
- FAS motor performance versus baseline [7]: significant improvements on motor performance over baseline

Compound: Br.CCCN(CCC)C1CCc2cccc(O)c2C1 (centres unmarked) [8-OH-DPAT, 8-hydroxy-2-(dipropylamino) tetralin hydrobromide]
- increase of [35S]GTPγS binding compared to vehicle (5-HT1A receptor): eightfold
- spontaneous firing of DRN 5-HT neurons (DRN 5-HT neurons; rat, in vivo, iv): suppressed the spontaneous firing of a DRN neuron
- extracellular dopamine and norepinephrine [1]: caused an increase

Compound: O=C1CC2(CCCC2)CC(=O)N1CCCCN1CCN(c2ncccn2)CC1 [buspirone]
- extracellular dopamine and norepinephrine [1]: caused an increase

Compound: COc1ccccc1N1CCN(CCN(C(=O)C2CCCCC2)c2ccccn2)CC1.O=C(O)/C=C\C(=O)O [WAY100635, N-[2-[4(2-Methoxyphenyl)-1-piperazinyl]ethyl]-N-2-pyridinylcyclohexanecarboxamide maleate salt]
- effect of 5-HT1A blockade on vilazodone's benefit on LIDs ([8]; WAY100635 with vilazodone + L-DOPA): reverses the beneficial effects of vilazodone on LIDs
- summed ALO AIMs, 5-HT1AR study ([9]; WAY100635 0 or 0.5 mg/kg): partially reversed the anti-dyskinetic efficacy of Vilazodone
- spontaneous firing of DRN 5-HT neurons (DRN 5-HT neurons; i.v., 8-OH-DPAT then WAY-100635 100 μg/kg, BFP and D2Rs expressing rats): return to baseline firing was observed

Compound: CN(C)CCC[C@@]1(c2ccc(F)cc2)OCc2cc(C#N)ccc21 [Escitalopram]
- LIDs score / severity ([8]; pretreatment with vilazodone 10 mg/kg or escitalopram 12.5 mg/kg before L-DOPA 5 mg/kg, 2 weeks): significantly reduced LIDs severity; also recorded: significant reduction in total LIDs score
- forelimb akinesia and L-DOPA prokinetic / therapeutic efficacy (stepping test) [10]: affected L-DOPA therapeutic efficacy; also recorded: interfered with the therapeutic efficacy of L-DOPA

Compound: C1=C(CN2CCOCC2)COc2c1cccc2OC[C@H]1CNCCO1.CS(=O)(=O)O [NAS-181, (R)-(+)-2-(3-morpholinomethyl-2H-chromen-8-yl) oxymethyl-morpholine methane-sulfonate]
- ALO AIMs, 5-HT1BR study ([9]; NAS-181 0 or 3.0 mg/kg): did not significantly alter AIMs or their reduction by Vilazodone
